Results on 15 compounds are retold here after ChEMBL document CHEMBL1201862, “PubChem BioAssay data set” (2004).

Structures are written as SMILES.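 All cell lines were grown in 96-well plates and treated with compound for 48 hours. At the GI50, growth is halved.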 The source made the active and inactive calls. Cut-off read from the data, not from the text of the source: active = GI50 up to about 1.1 µM and inactive = higher.

Holding throughout (assay): NCI-60 cell line screen, 48 h
Assay [1] concerns ACHN.
Assay [2] deals with RPMI-8226.
Assay [3] has as its system TK-10.
Assay [4] relates to SK-OV-3.
Assay [5] concerns HOP-92.
The subject of assay [6] is HCC 2998.
Assay [7] relates to RXF 393.
Assay [8] has as its system XF498.
Assay [9] concerns NCI-H226.
Assay [10] relates to Malme-3M.
Assay [11] relates to HOP-18.
Assay [12] deals with MCF7.
The test system of assay [13] is MDA-MB-435.
In assay [14] the test system is PC-3.
The test system of assay [15] is DU-145.
Assay [16] has as its system T47D.
The test system of assay [17] is BT-549.
Assay [18] relates to MDA-MB-231.
The subject of assay [19] is Hs-578T.
The subject of assay [20] is NCI/ADR-RES.

For the compound `COC(=O)C1CCC(=O)N1/C(C)=N/NC(=O)Nc1ccc(Cl)c(Cl)c1` (stereo not drawn), the GI50 is 21 µM (inactive) in assay [1]; > 100 µM (inactive) in assay [2]; 88.1 µM (inactive) in assay [3]; 43.4 µM (inactive) in assay [4]; > 100 µM (inactive) in assay [5]; > 100 µM (inactive) in assay [6]. Also, the GI50 in assay [7] and in [8] was > 100 µM (inactive) each time.
Regarding `Nc1nn(CC(O)CO)c(=O)s1` (stereo not drawn), the GI50 in assay [9], in [10], in assay [1], in [2], in [3] and in [11] was > 100 µM (inactive) in each case. For the same compound, the GI50 in [4], in assay [6], in assay [7] and in assay [8] was > 100 µM (inactive) each time.
Consider `N#C/C(=C\c1cccc(O)c1O)C(N)=O`, for which the GI50 in [9] is 25.3 µM (inactive); in assay [10], 46.8 µM (inactive); in assay [1] it was 26.6 µM (inactive); in assay [2] it was 18.3 µM (inactive); in [3] it was 42.1 µM (inactive); in [4] it was 28.8 µM (inactive). Further, the GI50 was 41.3 µM (inactive) in [5], 20.3 µM (inactive) in [6], 3.22 µM (inactive) in assay [7] and 31.4 µM (inactive) in assay [8].
As for `COc1cc(/C=C/C2=C(C#N)C(=O)OC2(C)C)ccc1O`, the GI50 was 37.3 µM (inactive) in assay [9]; > 100 µM (inactive) in assay [10]; 34.2 µM (inactive) in assay [1]; 20.4 µM (inactive) in assay [2]; > 100 µM (inactive) in [3]; > 100 µM (inactive) in assay [11]. In addition, the GI50 in assay [4] is > 100 µM (inactive); in assay [5], > 100 µM (inactive); in assay [6], 71.9 µM (inactive); in assay [7] it was 36.9 µM (inactive).
As for `COc1ccc(C2C(C(=O)O)=C(COC(C)=O)Oc3cc4c(cc32)OCO4)cc1` (stereo not drawn), the GI50 in assay [10], in assay [1], in [2], in assay [3], in [11] and in assay [4] was > 100 µM (inactive) in each case. For the same compound, the GI50 in assay [5] is > 100 µM (inactive); in assay [7] it was > 100 µM (inactive); in assay [8], 40.7 µM (inactive).
As for `CCCCOP(C)(=O)C(NC(=O)OCC)(C(F)(F)F)C(F)(F)F` (stereo not drawn), the GI50 in assay [9], in [12], in assay [10], in assay [13], in assay [14] and in assay [1] was > 100 µM (inactive) each time. In addition, the GI50 in [2], in assay [3], in assay [15], in assay [16], in assay [4] and in assay [5] was > 100 µM (inactive) in each case. Moreover, the GI50 in assay [17], in [6], in assay [18], in [7], in assay [19] and in assay [20] was > 100 µM (inactive) in each case.
`Cc1ccc2c(O)cc(-c3cc(C)sc3C)nc2n1`: the GI50 in [9] is 2.38 µM (inactive); in [12], 2.18 µM (inactive); in assay [10], 3.56 µM (inactive); in assay [13], 0.351 µM (active); in assay [14] it was 2.55 µM (inactive); in assay [1] it was 8.13 µM (inactive). Also, the GI50 in assay [2] is 2.37 µM (inactive); in [3], 25.1 µM (inactive); in assay [15], 3.99 µM (inactive); in [16] it was 2.67 µM (inactive); in assay [4], 3.77 µM (inactive); in [5] it was 17.9 µM (inactive). For the same compound, the GI50 is 8.87 µM (inactive) in assay [17]; 4.05 µM (inactive) in assay [6]; 10.4 µM (inactive) in assay [18]; 2.81 µM (inactive) in [7]; 2.47 µM (inactive) in assay [19]; 1.62 µM (inactive) in assay [20].
As to `O=C1C(Cl)=C(N2CCC[C@H]2CO)C(=O)c2c(O)ccc(O)c21`, the GI50 is > 10 µM (inactive) in [9]; 1.81 µM (inactive) in assay [12]; 1.7 µM (inactive) in assay [10]; 1.82 µM (inactive) in assay [13]; 4.24 µM (inactive) in assay [14]; 2.03 µM (inactive) in [1]. For the same compound, the GI50 is 0.379 µM (active) in assay [2]; 2.54 µM (inactive) in [3]; 4.38 µM (inactive) in assay [15]; 2.11 µM (inactive) in assay [16]; > 10 µM (inactive) in assay [4]; 1.72 µM (inactive) in [5]. Further, the GI50 in assay [17] is > 10 µM (inactive); in [6], 4.55 µM (inactive); in [18], 2.64 µM (inactive); in assay [7], 1.99 µM (inactive); in assay [19], 2.26 µM (inactive); in assay [20] it was 2 µM (inactive).
Regarding `COc1cc2cc(C(=O)N3CC(CCl)c4c3cc(N(C)C)c3ccccc43)[nH]c2c(OC)c1OC` (stereo not drawn), the GI50 in [9] was 0.0132 µM (active); in assay [12], < 0.01 µM (active); in assay [10], 0.0321 µM (active); in assay [13], 0.0146 µM (active); in [14], < 0.01 µM (active); in assay [1], < 0.01 µM (active). In addition, the GI50 was 0.0144 µM (active) in assay [2]; 0.0108 µM (active) in assay [3]; < 0.01 µM (active) in assay [15]; < 0.01 µM (active) in assay [16]; 0.0137 µM (active) in assay [4]; 0.0417 µM (active) in assay [5]. Moreover, the GI50 was 0.103 µM (active) in [17]; 0.0101 µM (active) in assay [6]; 0.0378 µM (active) in [18]; 0.0137 µM (active) in [7]; 0.0199 µM (active) in assay [19]; < 0.01 µM (active) in assay [20].
On to `[N-]=[N+]=Nc1c(C=O)c(=O)n2c3c(cccc13)CCC2`, for which the GI50 was 11.9 µM (inactive) in assay [9]; 2.75 µM (inactive) in assay [12]; 1.84 µM (inactive) in assay [10]; 6.89 µM (inactive) in assay [13]; 12.1 µM (inactive) in assay [14]; 3.44 µM (inactive) in assay [1]. Besides, the GI50 was 2.87 µM (inactive) in assay [2]; 4.74 µM (inactive) in assay [3]; 5.15 µM (inactive) in assay [15]; 4.86 µM (inactive) in assay [16]; 19 µM (inactive) in assay [4]; 2.15 µM (inactive) in [5]. The GI50 is 2.65 µM (inactive) in assay [17]; 16.9 µM (inactive) in assay [6]; 11.3 µM (inactive) in [18]; 1.76 µM (inactive) in assay [7]; 15.3 µM (inactive) in [19]; 7.76 µM (inactive) in assay [20].
As to `O=C1Oc2ccc([N+](=O)[O-])cc2N/C1=C\C(=O)c1ccccc1`, the GI50 in assay [9] is > 100 µM (inactive); in [12], > 100 µM (inactive); in [10], > 100 µM (inactive); in assay [13], > 100 µM (inactive); in [14], 72.4 µM (inactive); in [1], > 100 µM (inactive). For the same compound, the GI50 in assay [2] was > 100 µM (inactive); in assay [3], 25.1 µM (inactive); in assay [15] it was > 100 µM (inactive); in assay [16], 97.5 µM (inactive); in assay [4], > 100 µM (inactive); in assay [5], > 100 µM (inactive). Moreover, the GI50 in assay [17] was > 100 µM (inactive); in assay [6], 28.1 µM (inactive); in assay [18], 51.8 µM (inactive); in assay [7], > 100 µM (inactive); in assay [19], > 100 µM (inactive); in [20], > 100 µM (inactive).
Take `O=C1c2ccccc2-c2nnc(-c3ccc([N+](=O)[O-])cc3)cc21`: the GI50 in assay [9], in assay [12], in assay [10], in assay [13], in [14] and in assay [1] was > 10 µM (inactive) in each case. Further, the GI50 in assay [2], in assay [3], in assay [15], in assay [16], in [4] and in assay [5] was > 10 µM (inactive) each time. Besides, the GI50 in assay [17], in assay [6], in [18], in [7], in assay [19] and in [20] was > 10 µM (inactive) in each case.
With `O=C1C2Cc3ccccc3CN2C(=O)N1CN1CCCCC1` (stereo not drawn), the GI50 in assay [9] was > 100 µM (inactive); in [10], > 100 µM (inactive); in assay [1] it was > 100 µM (inactive); in assay [2], 31.1 µM (inactive); in assay [3], > 100 µM (inactive); in assay [6] it was > 100 µM (inactive). In addition, the GI50 in [8] was > 100 µM (inactive).
As to `COC1C=CC(O)C(CO)O1` (stereo not drawn), the GI50 in assay [10], in assay [1], in assay [3], in assay [4], in assay [5] and in [6] was > 100 µM (inactive) throughout. Further, the GI50 in assay [7] and in [8] was > 100 µM (inactive) in each case.
For the compound `CCCCCCCCCCCC1=C(O)C(=O)C=C(O)C1=O` [EMBELIN], the GI50 in assay [9] was 5.25 µM (inactive); in assay [12], 7.64 µM (inactive); in [10], 5.81 µM (inactive); in assay [2] it was 3.81 µM (inactive); in assay [11], 4.58 µM (inactive); in assay [4], 8.43 µM (inactive). The GI50 in [5] is 4.09 µM (inactive); in assay [6], 4.72 µM (inactive); in assay [7], 12.9 µM (inactive); in assay [20], 6.27 µM (inactive).
